According to paper PMC8359193, “Summary of reference chemicals evaluated by the fish short‐term reproduction assay, OECD TG229, using Japanese Medaka, Oryzias latipes” (Journal of Applied Toxicology, 2021):
pEC50: −log10 of the molar value. “Also recorded” adds a separate entry of the source. Read-outs that look alike come from different tables or passages of the source.

Target: T1, medaka Esr1 (mEsr1) (Oryzias latipes, UniProt P50241)
T1 construct: expressed in transfected cells; host or cells: HEK293 (human embryonic kidney cells), transient transfection with FuGENE HD
T1 sequence (P50241 1-620): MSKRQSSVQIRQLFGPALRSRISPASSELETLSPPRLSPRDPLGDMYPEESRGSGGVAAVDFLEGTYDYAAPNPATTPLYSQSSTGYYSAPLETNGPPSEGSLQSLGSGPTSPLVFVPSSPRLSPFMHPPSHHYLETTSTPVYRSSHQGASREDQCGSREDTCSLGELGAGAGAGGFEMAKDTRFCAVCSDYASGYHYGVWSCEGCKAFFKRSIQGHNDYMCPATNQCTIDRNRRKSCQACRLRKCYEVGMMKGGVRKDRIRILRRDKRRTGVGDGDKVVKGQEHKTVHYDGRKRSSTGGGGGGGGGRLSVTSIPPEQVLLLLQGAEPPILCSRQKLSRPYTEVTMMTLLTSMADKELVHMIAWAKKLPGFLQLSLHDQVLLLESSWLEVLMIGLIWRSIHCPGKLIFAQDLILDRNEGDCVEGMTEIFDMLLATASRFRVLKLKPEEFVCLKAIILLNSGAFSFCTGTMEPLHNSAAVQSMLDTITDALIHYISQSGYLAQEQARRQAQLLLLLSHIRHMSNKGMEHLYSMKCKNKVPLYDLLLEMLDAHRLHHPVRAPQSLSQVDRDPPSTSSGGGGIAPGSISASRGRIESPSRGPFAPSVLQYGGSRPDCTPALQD
Test: cell-based
Type: cell-based, Japanese medaka (Oryzias latipes)
Procedure: To support interpretation of the biological effects observed in the FSTRA studies, in vitro RGAs using medaka Esr1 (mEsr1) and medaka ARβ (mARβ) were performed for the 16 test chemicals. In the present study, Esr1 and ARβ, which are ancestral subtypes among Esrs and ARs in Japanese medaka, were selected based on the phylogenetical analyses of Esr and AR with each receptor RGAs (Ogino et al., [2016], [2018]; Tohyama et al., [2015]).
The mEsr1 RGA consisting of agonist and antagonist assays were performed according to the methods previously reported (Katsu et al., [2010]; Lange et al., [2012]; Miyagawa et al., [2014]). Briefly, human embryonic kidney cells 293 (HEK293), precultured, were seeded in 96‐well plates at 15,000 cells/well with 200 μl of culture medium, phenol‐red‐free Dulbecco's Modified Eagle's medium (ThermoFisher Scientific K.K., Tokyo, Japan) supplemented with 2‐mM L‐glutamine and 10% charcoal/dextran‐treated fetal bovine serum (Hyclone, UT, USA), and then incubated for 24 h in 5% CO2 at 37°C. After the 24‐h incubation, 20 μl of test medium containing 40 ng of medaka Esr1/pcDNA3.1, 80 ng of ERE‐TK‐Luc, and 20 ng of pRL‐TK‐Rlu and 1.2 μL of transfection reagent FuGENE HD (Promega, WI, USA) were added into each well. The assay plates were incubated for another 4 h in order to transfect the three vectors into the HEK293 cells. After the vectors were successfully transfected, in agonist assay, 24 μl of concentrated test chemical solution was applied to the test medium in the plate wells. […] After chemical treatment for 40 h, luciferase activity of the cells was measured, and the promoter activity was calculated as firefly (Photinus pyralis)‐/sea pansy (Renilla reniformis)‐luciferase activity in each well. The luciferase activities were quantified by a chemiluminescence assay with Dual‐Luciferase Reporter Assay System (Promega) in accordance with the manufacturer's instructions, and luminescence intensity of firefly and sea pansy luciferin was measured using a luminometer, TriStar LB941 (Berthold Technology, Oak Ridge, TN, USA).
Effect concentrations, that is, EC50 (a half maximal effective concentration) in the agonist assay and IC50 (a half maximal inhibitory concentration) in the antagonist assay, were estimated by nonlinear curve fitting (e.g., three parameters logistic regression curve) using GraphPad Prism (GraphPad Software Inc., La Jolla, CA, USA).

[1] = mEsr1 RGA agonist assay, ND = no significant response even at the highest assay concentration (in parentheses), read-out: Agonist assay, EC50, Medaka Esr1

SMILES	pEC50 [1]	other results
Cc1cc(O)ccc1Cl [CMP, 4‐Chloro‐3‐methylphenol]		pEC50 (read-out: Agonist assay, EC50, Medaka Esr1, mEsr1 RGA agonist assay, ND = no significant response even at the highest assay concentration (in parentheses)): 4.21
C#C[C@]1(O)CC[C@H]2[C@@H]3CCc4cc(O)ccc4[C@H]3CC[C@@]21C [EE2, 17α‐Ethynylestradiol]	9.06	
C#C[C@]1(O)CC[C@H]2[C@@H]3CCC4=CC(=O)CC[C@@H]4[C@H]3CC[C@@]21CC [LNG, Levonorgestrel]	5.96	
CC(=O)[C@H]1CC[C@H]2[C@@H]3CCC4=CC(=O)CC[C@]4(C)[C@H]3CC[C@]12C [P4, Progesterone]		pEC50: < 5.00
CCC(C)(C)c1ccc(O)cc1 [PTH, 4‐tert‐Pentylphenol]	6.01	
CCCCCCCCCCCCOS(=O)(=O)[O-].[Na+] [SDS, Sodium dodecyl sulfate]	< 4.00	mEsr1 agonist activity (in words) (highest concentration 100 μM): could not be determined; also recorded: neithEsr agonistic nor antagonistic activity
